Measured values from patent US20240180836A1, “Cationic Lipid Compound and Composition for Delivery of Nucleic Acids and Use Thereof” (Shenzhen Rhegen Biotechnology Co., Ltd., priority 2022, published 2024).

Assay: In vivo metabolic rates of cationic lipids (cationic lipid content in liver by HPLC-CAD)
Settings: 5 ug EPO-mRNA-lipid nanoparticles, tail vein injection, female Balb/c mice, 1 h to 48 h after injection, compared with DLin-MC3-DMA
Method: 5 ug EPO-mRNA-lipid nanoparticles were injected via tail vein injection in 6-8 week old female Balb/c mice, prepared as in Example 13. After injection, the mice were executed at different time points (1 h, 3 h, 6 h, 24 h, 48 h after injection). The livers were taken and crushed, and the lipids were extracted from them with chloroform in three times, and the extracts were finally combined. After spin distillation to remove chloroform, methanol was added to dissolve the sample, and the cationic lipid content therein was analyzed by HPLC-CAD (Thermo Vanquish), with an Acclaim™ C18 column as the analytical column, a 0.5% TEAA aqueous solution as mobile phase A and a 0.5% TEAA methanol solution as mobile phase B. The sample was eluted according to the gradient in Table 2 below.

Q: With CCCCCCCCCSC(=O)CCCCCCCN(CCO)CCCCCCCC(=O)SC(CCCCCCCC)CCCCCCCC [Compound 9] as the molecule, how does the “In vivo metabolism rate of cationic lipid (FIG. 3)” value read?
A: metabolized in vivo faster than DLin-MC3-DMA
